Laboratory results taken from patent US20230085307A1, “PYRIDAZINONE COMPOUND AND HERBICIDE” (NISSAN CHEMICAL CORPORATION, priority 2019, published 2023).

Legend:
barnyard grass [1] = test: Test Example 3: herbicidal effect by foliage application, Wagner pot (Table 18, symbol H); format: in vivo, barnyard grass (Echinochloa crus-galli); conditions: amount of applied herbicide 320 g/ha
Procedure, shortened: (§1)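 Plants were sown in alluvial soil held under 0.1–0.5 cm standing water and grown 14 days in a greenhouse at 25–30 °C. An emulsifiable formulation, water-diluted to the set dose, was then sprayed onto the foliage, and effects were scored three weeks later using previously defined criteria.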

redroot pigweed = test: Test Example 5: herbicidal effect by foliage application, plastic box (Table 20, symbol N); format: in vivo, redroot pigweed (Amaranthus retroflexus); conditions: foliage application, evaluated three weeks after application; for herbicidal effect on N: redroot pigweed (criteria 0-5): 320 g/ha; for N: redroot pigweed, herbicidal effect (criteria 0-5): AAH 320 g/ha
Procedure, shortened: (§2)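 Sow seeds spot-wise in sterilized diluvial soil; cover with ~1.5 cm soil. Grow 14 days in greenhouse, 25° C. to 30° C. Spray foliage with emulsion diluted to predetermined amount. Rate effect after 3 weeks.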

green foxtail = test: Test Example 5: herbicidal effect by foliage application, plastic box (Table 20, symbol G); format: in vivo, green foxtail (Setaria viridis); conditions: foliage application, evaluated three weeks after application; for herbicidal effect on G: green foxtail (criteria 0-5): 320 g/ha; for G: green foxtail, herbicidal effect (criteria 0-5): AAH 320 g/ha
Procedure, shortened: as §2

blackgrass = test: Test Example 5: herbicidal effect by foliage application, plastic box (Table 20, symbol J); format: in vivo, blackgrass (Alopecurus myosuroides); conditions: foliage application, evaluated three weeks after application; for herbicidal effect on J: blackgrass (criteria 0-5): 320 g/ha; for J: blackgrass, herbicidal effect (criteria 0-5): AAH 320 g/ha
Procedure, shortened: as §2

rice flat sedge = test: Test Example 3: herbicidal effect by foliage application, Wagner pot (Table 18, symbol E); format: in vivo, rice flat sedge (Cyperus iria); conditions: amount of applied herbicide 320 g/ha
Procedure, shortened: as §1

southern crabgrass = test: Test Example 5: herbicidal effect by foliage application, plastic box (Table 20, symbol F); format: in vivo, southern crabgrass (Digitaria ciliaris); conditions: foliage application, evaluated three weeks after application; for herbicidal effect on F: southern crabgrass (criteria 0-5): 320 g/ha; for F: southern crabgrass, herbicidal effect (criteria 0-5): AAH 320 g/ha
Procedure, shortened: as §2

Chinese sprangletop = test: Test Example 3: herbicidal effect by foliage application, Wagner pot (Table 18, symbol D); format: in vivo, chinese sprangletop (Leptochloa chinensis); conditions: amount of applied herbicide 320 g/ha
Procedure, shortened: as §1

wild oat = test: Test Example 5: herbicidal effect by foliage application, plastic box (Table 20, symbol I); format: in vivo, wild oat (Avena fatua); conditions: foliage application, evaluated three weeks after application; for herbicidal effect on I: wild oat (criteria 0-5): 320 g/ha; for I: wild oat, herbicidal effect (criteria 0-5): AAH 320 g/ha
Procedure, shortened: as §2

velvetleaf = test: Test Example 5: herbicidal effect by foliage application, plastic box (Table 20, symbol M); format: in vivo, velvetleaf (Abutilon theophrasti); conditions: foliage application, evaluated three weeks after application; for herbicidal effect on M: velvetleaf (criteria 0-5): 320 g/ha; for M: velvetleaf, herbicidal effect (criteria 0-5): AAH 320 g/ha
Procedure, shortened: as §2

barnyard grass [2] = test: Test Example 5: herbicidal effect by foliage application, plastic box (Table 20, symbol H); format: in vivo, barnyard grass (Echinochloa crus-galli); conditions: foliage application, evaluated three weeks after application; for herbicidal effect on H: barnyard grass (criteria 0-5): 320 g/ha; for H: barnyard grass, herbicidal effect (criteria 0-5): AAH 320 g/ha
Procedure, shortened: as §2

persian speedwell = test: Test Example 5: herbicidal effect by foliage application, plastic box (Table 20, symbol R); format: in vivo, Persian speedwell (Veronica persica); conditions: foliage application, evaluated three weeks after application; for herbicidal effect on R: persian speedwell (criteria 0-5): 320 g/ha; for R: persian speedwell, herbicidal effect (criteria 0-5): AAH 320 g/ha
Procedure, shortened: as §2

windgrass = test: Test Example 5: herbicidal effect by foliage application, plastic box (Table 20, symbol L); format: in vivo, windgrass (Apera spica-venti); conditions: foliage application, evaluated three weeks after application; for herbicidal effect on L: windgrass (criteria 0-5): 320 g/ha; for L: windgrass, herbicidal effect (criteria 0-5): AAH 320 g/ha
Procedure, shortened: as §2

Italian ryegrass = test: Test Example 5: herbicidal effect by foliage application, plastic box (Table 20, symbol K); format: in vivo, Italian ryegrass (Lolium multiflorum); conditions: foliage application, evaluated three weeks after application; for herbicidal effect on K: Italian ryegrass (criteria 0-5): 320 g/ha; for K: Italian ryegrass, herbicidal effect (criteria 0-5): AAH 320 g/ha
Procedure, shortened: as §2

chickweed = test: Test Example 5: herbicidal effect by foliage application, plastic box (Table 20, symbol P); format: in vivo, common chickweed (Stellaria media); conditions: foliage application, evaluated three weeks after application; for herbicidal effect on P: chickweed (criteria 0-5): 320 g/ha; for P: chickweed, herbicidal effect (criteria 0-5): AAH 320 g/ha
Procedure, shortened: as §2

lambsquarters = test: Test Example 5: herbicidal effect by foliage application, plastic box (Table 20, symbol O); format: in vivo, lambsquarters (Chenopodium album); conditions: foliage application, evaluated three weeks after application; for herbicidal effect on O: lambsquarters (criteria 0-5): 320 g/ha; for O: lambsquarters, herbicidal effect (criteria 0-5): AAH 320 g/ha
Procedure, shortened: as §2

SMILES | herbicidal effect on H: barnyard grass (barnyard grass [1]) | herbicidal effect on N: redroot pigweed (criteria 0-5) (redroot pigweed) | herbicidal effect on G: green foxtail (criteria 0-5) (green foxtail) | herbicidal effect on J: blackgrass (criteria 0-5) (blackgrass) | herbicidal effect on E: rice flat sedge (rice flat sedge) | herbicidal effect on F: southern crabgrass (criteria 0-5) (southern crabgrass) | herbicidal effect on D: Chinese sprangletop (Chinese sprangletop) | herbicidal effect on I: wild oat (criteria 0-5) (wild oat) | herbicidal effect on M: velvetleaf (criteria 0-5) (velvetleaf) | herbicidal effect on H: barnyard grass (criteria 0-5) (barnyard grass [2]) | herbicidal effect on R: persian speedwell (criteria 0-5) (persian speedwell) | herbicidal effect on L: windgrass (criteria 0-5) (windgrass) | herbicidal effect on K: Italian ryegrass (criteria 0-5) (Italian ryegrass) | herbicidal effect on P: chickweed (criteria 0-5) (chickweed) | herbicidal effect on O: lambsquarters (criteria 0-5) (lambsquarters) | N: redroot pigweed, herbicidal effect (criteria 0-5) (redroot pigweed) | G: green foxtail, herbicidal effect (criteria 0-5) (green foxtail) | J: blackgrass, herbicidal effect (criteria 0-5) (blackgrass) | F: southern crabgrass, herbicidal effect (criteria 0-5) (southern crabgrass) | I: wild oat, herbicidal effect (criteria 0-5) (wild oat) | other results
COc1ccc(-c2sc3ccc(C)cc3c2-c2c(O)c(C)nn(C)c2=O)cc1OC [2-152] | 0 (Herbicidal rate of 5% or less (almost no effect)) | 0 (Herbicidal rate of 5% or less (almost no effect)) | 0 (Herbicidal rate of 5% or less (almost no effect)) | 0 (Herbicidal rate of 5% or less (almost no effect)) | 3 (Herbicidal rate of 40% or more and less than 70%) | 0 (Herbicidal rate of 5% or less (almost no effect)) | 0 (Herbicidal rate of 5% or less (almost no effect)) | 0 (Herbicidal rate of 5% or less (almost no effect)) | 0 (Herbicidal rate of 5% or less (almost no effect)) | 0 (Herbicidal rate of 5% or less (almost no effect)) | 4 (Herbicidal rate of 70% or more and less than 90%) | 0 (Herbicidal rate of 5% or less (almost no effect)) | 2 (Herbicidal rate of 20% or more and less than 40%) | 5 (Herbicidal rate of 90% or more (almost completely withered)) | 0 (Herbicidal rate of 5% or less (almost no effect)) | – | – | – | – | – | –
COc1cc(F)ccc1-c1sc2ccc(N(C)C(C)=O)cc2c1-c1c(O)c(C)nn(C)c1=O [2-177] | 3 (Herbicidal rate of 40% or more and less than 70%) | 4 (Herbicidal rate of 70% or more and less than 90%) | 3 (Herbicidal rate of 40% or more and less than 70%) | 3 (Herbicidal rate of 40% or more and less than 70%) | 3 (Herbicidal rate of 40% or more and less than 70%) | 0 (Herbicidal rate of 5% or less (almost no effect)) | 4 (Herbicidal rate of 70% or more and less than 90%) | 0 (Herbicidal rate of 5% or less (almost no effect)) | 3 (Herbicidal rate of 40% or more and less than 70%) | 0 (Herbicidal rate of 5% or less (almost no effect)) | 4 (Herbicidal rate of 70% or more and less than 90%) | 3 (Herbicidal rate of 40% or more and less than 70%) | 0 (Herbicidal rate of 5% or less (almost no effect)) | 5 (Herbicidal rate of 90% or more (almost completely withered)) | 3 (Herbicidal rate of 40% or more and less than 70%) | – | – | – | – | – | –
Cc1nn(C)c(=O)c(-c2c(-c3cccc(SC(C)C)c3)sc3ccc(F)cc23)c1O [2-250] | 3 (Herbicidal rate of 40% or more and less than 70%) | 5 (Herbicidal rate of 90% or more (almost completely withered)) | 0 (Herbicidal rate of 5% or less (almost no effect)) | 3 (Herbicidal rate of 40% or more and less than 70%) | 3 (Herbicidal rate of 40% or more and less than 70%) | 0 (Herbicidal rate of 5% or less (almost no effect)) | 2 (Herbicidal rate of 20% or more and less than 40%) | 2 (Herbicidal rate of 20% or more and less than 40%) | 2 (Herbicidal rate of 20% or more and less than 40%) | 0 (Herbicidal rate of 5% or less (almost no effect)) | 5 (Herbicidal rate of 90% or more (almost completely withered)) | 3 (Herbicidal rate of 40% or more and less than 70%) | 1 (Herbicidal rate of 5% or more and less than 20%) | 5 (Herbicidal rate of 90% or more (almost completely withered)) | 3 (Herbicidal rate of 40% or more and less than 70%) | – | – | – | – | – | –
Cc1nn(C)c(=O)c(-c2c(-c3cccc(SCC(F)(F)F)c3)sc3ccc(F)cc23)c1O [2-262] | 3 (Herbicidal rate of 40% or more and less than 70%) | – | – | – | 2 (Herbicidal rate of 20% or more and less than 40%) | – | 0 (Herbicidal rate of 5% or less (almost no effect)) | – | – | – | – | – | – | – | – | 5 (Herbicidal rate of 90% or more (almost completely withered)) | 0 (Herbicidal rate of 5% or less (almost no effect)) | 3 (Herbicidal rate of 40% or more and less than 70%) | 0 (Herbicidal rate of 5% or less (almost no effect)) | 3 (Herbicidal rate of 40% or more and less than 70%) | M: velvetleaf, herbicidal effect (criteria 0-5) (velvetleaf): 4 (Herbicidal rate of 70% or more and less than 90%); H: barnyard grass, herbicidal effect (criteria 0-5) (barnyard grass [2]): 0 (Herbicidal rate of 5% or less (almost no effect)); R: persian speedwell, herbicidal effect (criteria 0-5) (persian speedwell): 5 (Herbicidal rate of 90% or more (almost completely withered)); L: windgrass, herbicidal effect (criteria 0-5) (windgrass): 4 (Herbicidal rate of 70% or more and less than 90%); K: Italian ryegrass, herbicidal effect (criteria 0-5) (Italian ryegrass): 3 (Herbicidal rate of 40% or more and less than 70%); P: chickweed, herbicidal effect (criteria 0-5) (chickweed): 5 (Herbicidal rate of 90% or more (almost completely withered)); O: lambsquarters, herbicidal effect (criteria 0-5) (lambsquarters): 3 (Herbicidal rate of 40% or more and less than 70%)
Cc1nn(C)c(=O)c(-c2c(-c3ccc(OC(F)F)cc3)sc3ccc(F)cc23)c1OC(=O)C(C)(C)c1ccccc1 [2-282] | 3 (Herbicidal rate of 40% or more and less than 70%) | – | – | – | 0 (Herbicidal rate of 5% or less (almost no effect)) | – | 0 (Herbicidal rate of 5% or less (almost no effect)) | – | – | – | – | – | – | – | – | 5 (Herbicidal rate of 90% or more (almost completely withered)) | 4 (Herbicidal rate of 70% or more and less than 90%) | 0 (Herbicidal rate of 5% or less (almost no effect)) | 0 (Herbicidal rate of 5% or less (almost no effect)) | 0 (Herbicidal rate of 5% or less (almost no effect)) | M: velvetleaf, herbicidal effect (criteria 0-5) (velvetleaf): 4 (Herbicidal rate of 70% or more and less than 90%); H: barnyard grass, herbicidal effect (criteria 0-5) (barnyard grass [2]): 1 (Herbicidal rate of 5% or more and less than 20%); R: persian speedwell, herbicidal effect (criteria 0-5) (persian speedwell): 5 (Herbicidal rate of 90% or more (almost completely withered)); L: windgrass, herbicidal effect (criteria 0-5) (windgrass): 0 (Herbicidal rate of 5% or less (almost no effect)); K: Italian ryegrass, herbicidal effect (criteria 0-5) (Italian ryegrass): 0 (Herbicidal rate of 5% or less (almost no effect)); P: chickweed, herbicidal effect (criteria 0-5) (chickweed): 5 (Herbicidal rate of 90% or more (almost completely withered)); O: lambsquarters, herbicidal effect (criteria 0-5) (lambsquarters): 5 (Herbicidal rate of 90% or more (almost completely withered))
Cc1nn(C)c(=O)c(-c2c(-c3ccc(OC(F)F)cc3)sc3ccc(F)cc23)c1OC(=O)SC(C)(C)C [2-296] | 5 (Herbicidal rate of 90% or more (almost completely withered)) | – | – | – | 3 (Herbicidal rate of 40% or more and less than 70%) | – | 2 (Herbicidal rate of 20% or more and less than 40%) | – | – | – | – | – | – | – | – | 5 (Herbicidal rate of 90% or more (almost completely withered)) | 5 (Herbicidal rate of 90% or more (almost completely withered)) | 3 (Herbicidal rate of 40% or more and less than 70%) | 0 (Herbicidal rate of 5% or less (almost no effect)) | 0 (Herbicidal rate of 5% or less (almost no effect)) | M: velvetleaf, herbicidal effect (criteria 0-5) (velvetleaf): 5 (Herbicidal rate of 90% or more (almost completely withered)); H: barnyard grass, herbicidal effect (criteria 0-5) (barnyard grass [2]): 4 (Herbicidal rate of 70% or more and less than 90%); R: persian speedwell, herbicidal effect (criteria 0-5) (persian speedwell): 5 (Herbicidal rate of 90% or more (almost completely withered)); L: windgrass, herbicidal effect (criteria 0-5) (windgrass): 0 (Herbicidal rate of 5% or less (almost no effect)); K: Italian ryegrass, herbicidal effect (criteria 0-5) (Italian ryegrass): 1 (Herbicidal rate of 5% or more and less than 20%); P: chickweed, herbicidal effect (criteria 0-5) (chickweed): 5 (Herbicidal rate of 90% or more (almost completely withered)); O: lambsquarters, herbicidal effect (criteria 0-5) (lambsquarters): 5 (Herbicidal rate of 90% or more (almost completely withered))
